Some test systems named below: MDA-MB-435; SR leukemia; NCI-H226 lung; K-562 leukemia; MDA-MB-231 breast; DU-145 prostate; SK-OV-3 ovarian; SK-MEL-2 melanoma; HOP-62 NSCLC; IGROV1 ovarian.
Experiment in all cases: NCI anticancer screen, dose series, 48 h

Results on 11 molecules are retold here after PubChem BioAssay (NCI).

Values joined by “and” are separate entries in the source; they are usually repeats but may differ in a detail not shown here. Identical values can stand only once.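 Exposure lasted 48 hours, with cells grown in 96-well plates and compounds tested at five concentrations. GI50 = concentration required for 50% inhibition of growth. TGI denotes the concentration required for complete inhibition of growth.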

As to `CC(=O)OCC1C(=O)OCC1C(=O)N1Cc2cc3ccccc3nc2C1` (stereo not given), the TGI turned out to be 11.9 µM with MDA-MB-435; 10.7 µM with SR leukemia; 18.8 µM with NCI-H226 lung; 9.76 µM in the assay on K-562 leukemia; 19.9 µM in the assay with MDA-MB-231 breast; 14 µM in the assay with DU-145 prostate. Further, the TGI turned out to be 31.1 µM in the assay on SK-OV-3 ovarian, 22.9 µM in the assay on SK-MEL-2 melanoma, 32.7 µM with HOP-62 NSCLC and 24 µM in the assay with IGROV1 ovarian.
For `Cc1ccc(NC(=O)c2ccc(CN3CCN(C)CC3)cc2)cc1Nc1nc(-c2cccnc2)cs1`, the GI50 was 8.24 µM and 5.64 µM with MDA-MB-435; 2.72 µM and 1.91 µM in the assay with SR leukemia; 7.94 µM and 4.12 µM in the assay on NCI-H226 lung; 0.617 µM and 2.96 µM with K-562 leukemia; 11.1 µM and 4.43 µM in the assay with MDA-MB-231 breast; 15 µM and > 10 µM in the assay on DU-145 prostate. In addition, the GI50 in the assay with SK-OV-3 ovarian was 19.1 µM and > 10 µM; in the assay on SK-MEL-2 melanoma, 13.9 µM and > 10 µM; with HOP-62 NSCLC, 16.3 µM and > 10 µM; in the assay with IGROV1 ovarian it was 15 µM and 7.66 µM. The TGI with MDA-MB-435 was 21.6 µM and > 10 µM; in the assay with SR leukemia, 18.6 µM and 4.67 µM; in the assay on NCI-H226 lung, 29.6 µM and > 10 µM; in the assay with K-562 leukemia, more than 100 µM; in the assay with MDA-MB-231 breast, 29.2 µM and > 10 µM; with DU-145 prostate it was 28.4 µM and > 10 µM. Besides, the TGI is 40 µM and > 10 µM in the assay with SK-OV-3 ovarian; 27.3 µM and > 10 µM with SK-MEL-2 melanoma; 29.9 µM and > 10 µM in the assay on HOP-62 NSCLC; 35.6 µM and > 10 µM in the assay on IGROV1 ovarian.
Consider `CCCCn1c(=O)[nH]c(N)c([C@@H]2c3c([nH]c(=O)n(CCCC)c3=O)Oc3ccc4ccccc4c32)c1=O`, for which the GI50 in the assay with MDA-MB-435 was 1.7 µM; in the assay on SR leukemia, 0.458 µM; in the assay with NCI-H226 lung, 4.96 µM; in the assay on K-562 leukemia, 12.2 µM; in the assay with MDA-MB-231 breast, 1.85 µM; in the assay with DU-145 prostate, 1.8 µM. Further, the GI50 in the assay on SK-OV-3 ovarian was 2.74 µM; in the assay with SK-MEL-2 melanoma it was 2.51 µM; with HOP-62 NSCLC, 1.5 µM; with IGROV1 ovarian it was 1.89 µM. Moreover, the TGI in the assay with MDA-MB-435 turned out to be 3.11 µM; in the assay on SR leukemia it was 15.8 µM; with NCI-H226 lung, 25.2 µM; in the assay with K-562 leukemia, 51.2 µM; in the assay with MDA-MB-231 breast it was 4.58 µM; with DU-145 prostate, 3.25 µM. For the same molecule, the TGI came to 11.9 µM in the assay with SK-OV-3 ovarian, 7.34 µM in the assay with SK-MEL-2 melanoma, 4.72 µM with HOP-62 NSCLC and 4.78 µM in the assay on IGROV1 ovarian.
Turning to `N#CC1=C(N)Oc2c(sc3c(Br)cccc23)C1c1ccc([N+](=O)[O-])cc1` (stereo not given), the GI50 in the assay on MDA-MB-435 is 0.0206 µM; in the assay with SR leukemia it was 0.048 µM; in the assay on NCI-H226 lung, 0.368 µM; in the assay on K-562 leukemia, 0.0458 µM; with MDA-MB-231 breast, 0.514 µM; in the assay on DU-145 prostate, 0.14 µM. For the same molecule, the GI50 in the assay with SK-OV-3 ovarian was 0.128 µM; in the assay on SK-MEL-2 melanoma, 0.294 µM; with HOP-62 NSCLC, 0.123 µM; with IGROV1 ovarian it was 0.33 µM. For the same molecule, the TGI in the assay on MDA-MB-435 is 0.0807 µM; with SR leukemia, 6.45 µM; in the assay on NCI-H226 lung it was 15.6 µM; in the assay on K-562 leukemia it was 13.5 µM; in the assay with MDA-MB-231 breast, 9.67 µM; in the assay on DU-145 prostate, 9.26 µM. For the same molecule, the TGI in the assay with SK-OV-3 ovarian came to 15.1 µM; in the assay with SK-MEL-2 melanoma, 17.5 µM; with HOP-62 NSCLC it was 14 µM; with IGROV1 ovarian it was 18.4 µM.
With `CN1C(=O)C(c2c[nH]c3ccccc23)=C(c2c[nH]c3ccccc23)C1=O`, the GI50 in the assay on MDA-MB-435 is 5.49 µM; in the assay with SR leukemia, 7.14 µM; with NCI-H226 lung it was 5.96 µM; in the assay on K-562 leukemia it was 7.77 µM; with MDA-MB-231 breast it was 4.22 µM; in the assay with DU-145 prostate it was 9.38 µM. Besides, the GI50 with SK-OV-3 ovarian is 12 µM; in the assay on SK-MEL-2 melanoma, 5.26 µM; in the assay on HOP-62 NSCLC, 6.68 µM; in the assay on IGROV1 ovarian it was 5.47 µM. For the same molecule, the TGI is 16.2 µM with MDA-MB-435; more than 25 µM in the assay on SR leukemia; more than 19.4 µM with NCI-H226 lung; more than 25 µM in the assay on K-562 leukemia; 15.8 µM in the assay with MDA-MB-231 breast; more than 25 µM in the assay with DU-145 prostate. The TGI in the assay with SK-OV-3 ovarian was more than 25 µM; in the assay with SK-MEL-2 melanoma, 13.4 µM; in the assay with HOP-62 NSCLC, more than 25 µM; in the assay on IGROV1 ovarian, more than 22.8 µM.
For `Nc1c(C(=O)Nc2cccc(Cl)c2)sc2nc3c(cc12)C(=O)CCC3`, the GI50 is 0.0563 µM in the assay with MDA-MB-435; 0.383 µM in the assay with SR leukemia; 11.1 µM with NCI-H226 lung; 0.101 µM with K-562 leukemia; 1.88 µM in the assay on MDA-MB-231 breast; 0.377 µM with DU-145 prostate. In addition, the GI50 in the assay on SK-OV-3 ovarian is 0.313 µM; in the assay with SK-MEL-2 melanoma, 0.488 µM; in the assay with HOP-62 NSCLC, 0.663 µM; in the assay on IGROV1 ovarian, 2.28 µM. Also, the TGI in the assay with MDA-MB-435 was 0.284 µM; in the assay on SR leukemia, more than 100 µM; in the assay on NCI-H226 lung, more than 100 µM; in the assay on K-562 leukemia, more than 100 µM; with MDA-MB-231 breast it was more than 100 µM; in the assay on DU-145 prostate, more than 100 µM. The TGI in the assay on SK-OV-3 ovarian is more than 70.5 µM; with SK-MEL-2 melanoma it was more than 100 µM; in the assay on HOP-62 NSCLC, more than 100 µM; in the assay on IGROV1 ovarian it was more than 100 µM.
On to `COc1ccc(-c2nc3sc(-c4cc(OC)c(OC)c(OC)c4)nn3c2/C=C2/C(=O)Nc3ccc(F)cc32)cc1`, for which the GI50 with MDA-MB-435 was 3.39 µM; in the assay on SR leukemia, 23.5 µM; in the assay with NCI-H226 lung it was 16.8 µM; in the assay on K-562 leukemia it was 13.1 µM; with MDA-MB-231 breast, 5.25 µM; with DU-145 prostate it was 1.87 µM. In addition, the GI50 was 2.84 µM with SK-OV-3 ovarian, 5.58 µM in the assay on SK-MEL-2 melanoma, 1.94 µM in the assay with HOP-62 NSCLC and 3.39 µM in the assay with IGROV1 ovarian. Also, the TGI was 14 µM in the assay with MDA-MB-435; more than 100 µM with SR leukemia; 36.7 µM with NCI-H226 lung; more than 100 µM in the assay on K-562 leukemia; 20.7 µM with MDA-MB-231 breast; 4.53 µM in the assay with DU-145 prostate. Also, the TGI in the assay with SK-OV-3 ovarian worked out at 7.34 µM; in the assay with SK-MEL-2 melanoma, 17.6 µM; in the assay on HOP-62 NSCLC, 4.74 µM; with IGROV1 ovarian, 12.7 µM.
For the molecule `Nc1ccc(/C=C/c2ccc3ncccc3c2)cc1`, the GI50 in the assay on MDA-MB-435 is more than 100 µM; with SR leukemia, more than 100 µM; with NCI-H226 lung, more than 100 µM; with K-562 leukemia, more than 100 µM; in the assay on MDA-MB-231 breast, 2.09 µM; with DU-145 prostate it was more than 100 µM. Besides, the GI50 in the assay on SK-OV-3 ovarian, with SK-MEL-2 melanoma, in the assay on HOP-62 NSCLC and in the assay with IGROV1 ovarian was more than 100 µM in each case. Moreover, the TGI in the assay with MDA-MB-435, in the assay on SR leukemia, in the assay with NCI-H226 lung, in the assay with K-562 leukemia, in the assay on MDA-MB-231 breast and in the assay with DU-145 prostate was more than 100 µM each time. Besides, the TGI in the assay with SK-OV-3 ovarian, in the assay with SK-MEL-2 melanoma, with HOP-62 NSCLC and with IGROV1 ovarian was more than 100 µM throughout.
`CCN(Cc1ccc(OC)cc1)c1ccc(CO)c(Cl)c1`: the GI50 was 16.7 µM in the assay with MDA-MB-435; 24.7 µM in the assay on SR leukemia; 0.0519 µM with NCI-H226 lung; 2.33 µM in the assay with K-562 leukemia; 18.9 µM in the assay with MDA-MB-231 breast; 25.6 µM in the assay on DU-145 prostate. In addition, the GI50 was 6.7 µM with SK-OV-3 ovarian, 3.79 µM in the assay on SK-MEL-2 melanoma, 2.05 µM with HOP-62 NSCLC and 0.114 µM in the assay on IGROV1 ovarian. Besides, the TGI with MDA-MB-435 is 43.6 µM; with SR leukemia, more than 72.5 µM; in the assay with NCI-H226 lung, 0.182 µM; in the assay with K-562 leukemia it was more than 100 µM; in the assay on MDA-MB-231 breast, 61.3 µM; in the assay on DU-145 prostate it was more than 100 µM. The TGI came to 30.8 µM with SK-OV-3 ovarian, 20.2 µM in the assay with SK-MEL-2 melanoma, 29.4 µM in the assay on HOP-62 NSCLC and 1.16 µM with IGROV1 ovarian.
On to `O=[N+]([O-])c1ccc(C2=NCCO2)cc1`, for which the GI50 in the assay with MDA-MB-435, in the assay with SR leukemia, in the assay with NCI-H226 lung, in the assay with K-562 leukemia, with MDA-MB-231 breast and in the assay on DU-145 prostate was more than 100 µM each time. The GI50 in the assay on SK-OV-3 ovarian, with SK-MEL-2 melanoma, in the assay on HOP-62 NSCLC and in the assay on IGROV1 ovarian was more than 100 µM in each case. Further, the TGI with MDA-MB-435, in the assay with SR leukemia, in the assay on NCI-H226 lung, in the assay with K-562 leukemia, with MDA-MB-231 breast and in the assay on DU-145 prostate was more than 100 µM throughout. Also, the TGI with SK-OV-3 ovarian, in the assay with SK-MEL-2 melanoma, in the assay with HOP-62 NSCLC and in the assay on IGROV1 ovarian was more than 100 µM throughout.
On to `O=C(CCCc1ccc(N(CCCl)CCCl)cc1)NCc1ccccc1`, for which the GI50 with MDA-MB-435 was 3.69 µM; in the assay on SR leukemia, 0.978 µM; in the assay on NCI-H226 lung it was 14.6 µM; in the assay with K-562 leukemia, 7.43 µM; in the assay on MDA-MB-231 breast, 21.3 µM; in the assay on DU-145 prostate it was 5.04 µM. Moreover, the GI50 is 7.15 µM in the assay with SK-OV-3 ovarian, 21.8 µM in the assay with SK-MEL-2 melanoma, 8 µM in the assay with HOP-62 NSCLC and 13.8 µM in the assay with IGROV1 ovarian. Also, the TGI with MDA-MB-435 was 18 µM; in the assay with SR leukemia, 3.66 µM; in the assay on NCI-H226 lung, 47.2 µM; with K-562 leukemia, 54.3 µM; in the assay on MDA-MB-231 breast, more than 100 µM; with DU-145 prostate it was 56.6 µM. Also, the TGI in the assay with SK-OV-3 ovarian is 40.8 µM; in the assay with SK-MEL-2 melanoma, 55 µM; with HOP-62 NSCLC, 40.5 µM; in the assay with IGROV1 ovarian it was 43.9 µM.
